Measured values reported in article PMC7587962, “Evaluation of Cytotoxicity and α-Glucosidase Inhibitory Activity of Amide and Polyamino-Derivatives of Lupane Triterpenoids” (Molecules, 2020).

How the values were obtained:
BT-549 = test: NCI-60 SRB screen: breast cancer BT-549; assay type: cell-based, human; details: BT-549
TK-10 = test: NCI-60 SRB screen: renal cancer TK-10; assay type: cell-based, human; details: TK-10
MDA-MB-435 = test: NCI-60 SRB screen: melanoma MDA-MB-435; assay type: cell-based, human; details: MDA-MB-435
SF-539 = test: NCI-60 SRB screen: CNS cancer SF-539; assay type: cell-based, human; details: SF-539
SK-OV-3 = test: NCI-60 SRB screen: ovarian cancer SK-OV-3; assay type: cell-based, human; details: SK-OV-3
RPMI-8226 = test: NCI-60 SRB screen: leukemia RPMI-8226; assay type: cell-based; details: Homo sapiens, 48 h, RPMI-8226
Prostate cancer subpanel = test: NCI-60 screen, subpanel Prostate cancer
MALME-3M = test: NCI-60 SRB screen: melanoma MALME-3M; assay type: cell-based, human; details: MALME-3M
HT29 = test: NCI-60 SRB screen: colon cancer HT29; assay type: cell-based; details: Homo sapiens, HT29
COLO 205 = test: NCI-60 SRB screen: colon cancer COLO 205; assay type: cell-based, human; details: COLO 205
CAKI-1 = test: NCI-60 SRB screen: renal cancer CAKI-1; assay type: cell-based, human; details: CAKI-1
SF-268 = test: NCI-60 SRB screen: CNS cancer SF-268; assay type: cell-based, human; details: SF-268
K-562 = test: NCI-60 SRB screen: leukemia K-562; assay type: cell-based, human; details: K-562
SN12C = test: NCI-60 SRB screen: renal cancer SN12C; assay type: cell-based, human
DU-145 = test: NCI-60 SRB screen: prostate cancer DU-145; assay type: cell-based, human; details: DU-145
SW-620 = test: NCI-60 SRB screen: colon cancer SW-620; assay type: cell-based; details: Homo sapiens, 48 h, SW-620
KM12 = test: NCI-60 SRB screen: colon cancer KM12; assay type: cell-based, human; details: KM12
NCI-H226 = test: NCI-60 SRB screen: non-small cell lung cancer NCI-H226; assay type: cell-based, human; details: NCI-H226
[1] = system: 60 human tumor cell lines; details: single dose 10 µM
HCT-15 = test: NCI-60 SRB screen: colon cancer HCT-15; assay type: cell-based, human; details: HCT-15
UO-31 = test: NCI-60 SRB screen: renal cancer UO-31; assay type: cell-based, human; details: UO-31
OVCAR-8 = test: NCI-60 SRB screen: ovarian cancer OVCAR-8; assay type: cell-based, human; details: OVCAR-8
HOP-62 = test: NCI-60 SRB screen: non-small cell lung cancer HOP-62; assay type: cell-based, human; details: HOP-62
A498 = test: NCI-60 SRB screen: renal cancer A498; assay type: cell-based, human; details: A498
RXF 393 = test: NCI-60 SRB screen: renal cancer RXF 393; assay type: cell-based, human; details: RXF 393
LOX IMVI = test: NCI-60 SRB screen: melanoma LOX IMVI; assay type: cell-based, human
HCT-116 = test: NCI-60 SRB screen: colon cancer HCT-116; assay type: cell-based; details: Homo sapiens, 48 h, HCT-116
ACHN = test: NCI-60 SRB screen: renal cancer ACHN; assay type: cell-based, human
786-0 = test: NCI-60 SRB screen: renal cancer 786-0; assay type: cell-based, human; details: 786-0
SK-MEL-2 = test: NCI-60 SRB screen: melanoma SK-MEL-2; assay type: cell-based, human; details: SK-MEL-2
PC-3 = test: NCI-60 SRB screen: prostate cancer PC-3; assay type: cell-based, human; details: PC-3
T-47D = test: NCI-60 SRB screen: breast cancer T-47D; assay type: cell-based, human; details: T-47D
HCC-2998 = test: NCI-60 SRB screen: colon cancer HCC-2998; assay type: cell-based, human; details: HCC-2998
Breast cancer subpanel = test: NCI-60 screen, subpanel Breast cancer
MDA-MB-231/ATCC = test: NCI-60 SRB screen: breast cancer MDA-MB-231/ATCC; assay type: cell-based; details: Homo sapiens, 48 h
NCI-H522 = test: NCI-60 SRB screen: non-small cell lung cancer NCI-H522; assay type: cell-based, human; details: NCI-H522
[2] = Homo sapiens, five concentrations, 48 h, SRB, read-out: GI50
[3] = single dose 10 µM, read-out: Percentage Cell Growth
[4] = five concentrations, SRB, read-out: GI50

C=C(C)[C@@H]1CC[C@]2(C(=O)OC)CC[C@]3(C)[C@H](CC[C@@H]4[C@@]5(C)CCC(=NOCCC(=NOCCC#N)NCCC#N)C(C)(C)[C@@H]5CC[C@]43C)[C@@H]12 [Compound 21]
Percentage Cell Growth (BT-549; single dose 10 µM): 4.40% | GI50 (BT-549; [2]): 11.3 µM | GI50 (TK-10; [2]): 13.8 µM | Percentage Cell Growth (TK-10; single dose 10 µM): 37.88% | GI50 (MDA-MB-435; [2]): 9.7 µM | Percentage Cell Growth (MDA-MB-435; single dose 10 µM): 14.55% | GI50 (SF-539; [2]): 11 µM | Percentage Cell Growth (SF-539; single dose 10 µM): −2.29% | GI50 (SK-OV-3; [2]): 10.8 µM | Percentage Cell Growth (SK-OV-3; single dose 10 µM): 34.60% | activity at 10 µM (RPMI-8226; [3]): 3.28% | GI50 (RPMI-8226; [4]): 4.91 µM | MID b, average sensitivity of all cell line of particular subpanel (Prostate cancer subpanel): 7.83 µM | Selectivity, ratio MID a: MID b (Prostate cancer subpanel): 1.31 | GI50 (MALME-3M; [2]): 11.8 µM | Percentage Cell Growth (MALME-3M; single dose 10 µM): 25.27% | activity at 10 µM (HT29; HT-29, 48 h, single dose 10 µM, read-out: Percentage Cell Growth): 3.88% | GI50 (HT29; HT-29, five concentrations, 48 h, SRB, read-out: GI50): 6.7 µM | Percentage Cell Growth (COLO 205; single dose 10 µM): 17.60% | GI50 (COLO 205; [2]): 9.02 µM | Percentage Cell Growth (CAKI-1; single dose 10 µM): 18.52% | GI50 (CAKI-1; [2]): 10.2 µM | GI50 (SF-268; [2]): 11.4 µM | Percentage Cell Growth (SF-268; single dose 10 µM): 29.14% | GI50 (K-562; Homo sapiens, K562, five concentrations, 48 h, SRB, read-out: GI50): 2.23 µM | Percentage Cell Growth (K-562; single dose 10 µM): 5.42% | GI50 (SN12C; [2]): 7.28 µM | Percentage Cell Growth (SN12C; single dose 10 µM): −71.91% | Percentage Cell Growth (DU-145; single dose 10 µM): 27.53% | GI50 (DU-145; [2]): 13.4 µM | activity at 10 µM (SW-620; [3]): 22% | GI50 (SW-620; [4]): 4.45 µM | GI50 (KM12; [2]): 9.35 µM | Percentage Cell Growth (KM12; single dose 10 µM): 10.89% | GI50 (NCI-H226; [2]): 5.43 µM | Percentage Cell Growth (NCI-H226; single dose 10 µM): 2.42% | cancer cell lethality, range of percentage growth ([1]; cell lines with negative growth): −0.38% to −84.68% | cases of cancer cell lethality ([1]; number of cell lines): 11 | Percentage Cell Growth (HCT-15; single dose 10 µM): 34.28% | GI50 (HCT-15; [2]): 5.77 µM | GI50 (UO-31; [2]): 15.6 µM | Percentage Cell Growth (UO-31; single dose 10 µM): 19.03% | GI50 (OVCAR-8; [2]): 9.66 µM | Percentage Cell Growth (OVCAR-8; single dose 10 µM): 13.17% | Percentage Cell Growth (HOP-62; single dose 10 µM): 32.54% | GI50 (HOP-62; [2]): 12.5 µM | Percentage Cell Growth (A498; single dose 10 µM): −0.38% | GI50 (A498; [2]): 21.7 µM | GI50 (RXF 393; [2]): 5.64 µM | Percentage Cell Growth (RXF 393; single dose 10 µM): −43.14% | GI50 (LOX IMVI; [2]): 4.32 µM | Percentage Cell Growth (LOX IMVI; single dose 10 µM): 14.56% | activity at 10 µM (HCT-116; [3]): 4.16% | GI50 (HCT-116; [4]): 2.89 µM | GI50 (ACHN; [2]): 10.5 µM | Percentage Cell Growth (ACHN; single dose 10 µM): 13.94% | Percentage Cell Growth (786-0; single dose 10 µM): −11.47% | GI50 (786-0; [2]): 6.42 µM | GI50 (SK-MEL-2; [2]): 13.8 µM | Percentage Cell Growth (SK-MEL-2; single dose 10 µM): 36.23% | GI50 (PC-3; [2]): 2.26 µM | Percentage Cell Growth (PC-3; single dose 10 µM): 4.49% | GI50 (T-47D; Homo sapiens, T47D, five concentrations, 48 h, SRB, read-out: GI50): 3.47 µM | Percentage Cell Growth (T-47D; single dose 10 µM): 15.11% | Percentage Cell Growth (HCC-2998; single dose 10 µM): 26.92% | GI50 (HCC-2998; [2]): 13.8 µM | MID b, average sensitivity of all cell line of particular subpanel (Breast cancer subpanel): 10.16 µM | Selectivity, ratio MID a: MID b (Breast cancer subpanel): 1.00 | activity at 10 µM (MDA-MB-231/ATCC; MDA-MB-231/ATCC, single dose 10 µM, read-out: Percentage Cell Growth): 5.09% | GI50 (MDA-MB-231/ATCC; MDA-MB-231, MDA-MB-31/ATCC, five concentrations, SRB, read-out: GI50): 10.3 µM | GI50 (NCI-H522; [2]): 8.34 µM | Percentage Cell Growth (NCI-H522; single dose 10 µM): 13.36%
